Results published in the CheMixHub viscosity set.
± gives the uncertainty stated by the source.

Experiment: xn = mol fraction of the nth substance listed

CCCCCCCCCCCCCC + c1ccccc1
Settings | viscosity [mPa·s]
298 K, 101 kPa, x2 = 0.5 | 1.239 ± 0.033
298.15 K, 101 kPa, x1 = 0.1005 | 0.696 ± 0.047
298.15 K, 101 kPa, x1 = 0.2025 | 0.803 ± 0.053
298.15 K, 101 kPa, x1 = 0.3001 | 0.909 ± 0.059
298.15 K, 101 kPa, x1 = 0.3948 | 1.038 ± 0.066
298.15 K, 101 kPa, x1 = 0.469 | 1.168 ± 0.073
298.15 K, 101 kPa, x1 = 0.5776 | 1.318 ± 0.082
298.15 K, 101 kPa, x1 = 0.6954 | 1.468 ± 0.09
298.15 K, 101 kPa, x1 = 0.8004 | 1.664 ± 0.1
298.15 K, 101 kPa, x1 = 0.9094 | 1.86 ± 0.11
298.15 K, 101.33 kPa, x1 = 0.04444 | 0.6498 ± 0.0058
298.15 K, 101.33 kPa, x1 = 0.09068 | 0.6807 ± 0.006
298.15 K, 101.33 kPa, x1 = 0.2125 | 0.8158 ± 0.007
298.15 K, 101.33 kPa, x1 = 0.4169 | 1.079 ± 0.0089
298.15 K, 101.33 kPa, x1 = 0.5121 | 1.221 ± 0.01
298.15 K, 101.33 kPa, x1 = 0.6271 | 1.423 ± 0.011
298.15 K, 101.33 kPa, x1 = 0.7139 | 1.579 ± 0.013
298.15 K, 101.33 kPa, x1 = 0.8006 | 1.716 ± 0.014
298.15 K, 101.33 kPa, x1 = 0.8822 | 1.842 ± 0.015
303.15 K, 101 kPa, x1 = 0.1005 | 0.653 ± 0.045
303.15 K, 101 kPa, x1 = 0.2025 | 0.748 ± 0.05
303.15 K, 101 kPa, x1 = 0.3001 | 0.842 ± 0.055
303.15 K, 101 kPa, x1 = 0.3948 | 0.961 ± 0.062
303.15 K, 101 kPa, x1 = 0.469 | 1.081 ± 0.068
303.15 K, 101 kPa, x1 = 0.5776 | 1.211 ± 0.076
303.15 K, 101 kPa, x1 = 0.6954 | 1.341 ± 0.083
303.15 K, 101 kPa, x1 = 0.8004 | 1.513 ± 0.092
303.15 K, 101 kPa, x1 = 0.9094 | 1.684 ± 0.1
308.15 K, 101 kPa, x1 = 0.1005 | 0.611 ± 0.042
308.15 K, 101 kPa, x1 = 0.2025 | 0.699 ± 0.047
308.15 K, 101 kPa, x1 = 0.3001 | 0.786 ± 0.052
308.15 K, 101 kPa, x1 = 0.3948 | 0.894 ± 0.058
308.15 K, 101 kPa, x1 = 0.469 | 1.002 ± 0.064
308.15 K, 101 kPa, x1 = 0.5776 | 1.115 ± 0.07
308.15 K, 101 kPa, x1 = 0.6954 | 1.228 ± 0.077
308.15 K, 101 kPa, x1 = 0.8004 | 1.384 ± 0.085
308.15 K, 101 kPa, x1 = 0.9094 | 1.54 ± 0.094
318 K, 101 kPa, x2 = 0.5 | 0.9217 ± 0.024

CCCCCCCCCCCCCC + Clc1ccccc1
viscosity [mPa·s], 101 kPa
Settings | x1 = 0.1001 | x1 = 0.1937 | x1 = 0.295 | x1 = 0.3916 | x1 = 0.494 | x1 = 0.5998 | x1 = 0.6984 | x1 = 0.8002 | x1 = 0.9001
298.15 K | 0.844 ± 0.083 | 0.945 ± 0.091 | 1.063 ± 0.1 | 1.151 ± 0.11 | 1.266 ± 0.12 | 1.38 ± 0.13 | 1.495 ± 0.14 | 1.609 ± 0.15 | 1.724 ± 0.16
303.15 K | 0.789 ± 0.078 | 0.877 ± 0.085 | 0.964 ± 0.093 | 1.097 ± 0.1 | 1.161 ± 0.11 | 1.226 ± 0.11 | 1.291 ± 0.12 | 1.354 ± 0.12 | 1.419 ± 0.13
308.15 K | 0.746 ± 0.074 | 0.819 ± 0.081 | 0.932 ± 0.09 | 0.991 ± 0.095 | 1.041 ± 0.099 | 1.19 ± 0.11 | 1.241 ± 0.12 | 1.219 ± 0.11 | 1.397 ± 0.13

ClC(Cl)=C(Cl)Cl + CC(C)CCO
303.15 K, 101.33 kPa
Settings | viscosity [mPa·s]
x1 = 0.0975 | 2.635 ± 0.017
x1 = 0.2467 | 2.045 ± 0.013
x1 = 0.3283 | 1.773 ± 0.011
x1 = 0.4163 | 1.524 ± 0.01
x1 = 0.5256 | 1.293 ± 0.009
x1 = 0.6182 | 1.148 ± 0.008
x1 = 0.7334 | 1.013 ± 0.007
x1 = 0.8214 | 0.934 ± 0.006
x1 = 0.9161 | 0.864 ± 0.006

ClC(Cl)=C(Cl)Cl + CO
viscosity [mPa·s], 101.33 kPa
Settings | x2 = 0.1436 | x2 = 0.2974 | x2 = 0.456 | x2 = 0.6044 | x2 = 0.7514 | x2 = 0.9006
293.15 K | 0.762 ± 0.014 | 0.721 ± 0.013 | 0.683 ± 0.013 | 0.639 ± 0.012 | 0.585 ± 0.011 | 0.535 ± 0.01
303.15 K | 0.705 ± 0.013 | 0.667 ± 0.012 | 0.63 ± 0.012 | 0.59 ± 0.011 | 0.552 ± 0.01 | 0.512 ± 0.0099
313.15 K | 0.6515 ± 0.012 | 0.622 ± 0.012 | 0.592 ± 0.011 | 0.561 ± 0.011 | 0.529 ± 0.01 | 0.497 ± 0.0096
